According to ChEMBL document CHEMBL1130567, “A simplified template approach towards the synthesis of a potent beta-3 adrenoceptor agonist at the human receptor” (Bioorg Med Chem Lett, 1997):

The compounds below were run against T1, Beta-3 adrenergic receptor (Homo sapiens, UniProt P13945) (assay: Agonist efficacy for human Beta-3 adrenergic receptor expressed in chinese hamster ovary cells).
T1 sequence (P13945 whole entry): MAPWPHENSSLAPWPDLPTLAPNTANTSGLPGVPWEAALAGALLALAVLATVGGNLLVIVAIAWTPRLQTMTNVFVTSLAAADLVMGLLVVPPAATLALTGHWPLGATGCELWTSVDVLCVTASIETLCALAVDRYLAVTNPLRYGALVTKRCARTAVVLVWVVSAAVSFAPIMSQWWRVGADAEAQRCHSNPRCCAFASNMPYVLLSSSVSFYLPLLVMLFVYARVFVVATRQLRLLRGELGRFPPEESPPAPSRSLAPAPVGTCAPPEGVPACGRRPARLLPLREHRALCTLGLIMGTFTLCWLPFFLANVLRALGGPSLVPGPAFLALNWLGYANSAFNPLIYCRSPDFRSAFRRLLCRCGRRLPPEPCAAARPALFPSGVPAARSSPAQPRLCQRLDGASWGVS
Format: functional, cell-based
An EC50 of 400 nM was found for `COc1ccc(CCNC[C@@H](O)COc2ccc(O)c(NS(C)(=O)=O)c2)cc1` in this work. An EC50 of 7900 nM was found for `COc1ccc(CCNC[C@@H](O)COc2ccc(O)c(F)c2)cc1` in this work. An EC50 of 4700 nM was found for `COc1ccc(CCNC[C@@H](O)COc2ccc(O)c(CO)c2)cc1` in this work. An EC50 of 2000 nM was found for `COc1ccc(CCNC[C@@H](O)COc2cccc(O)c2)cc1` in this work. An EC50 of 560 nM was found for `COc1ccc(CCNC[C@@H](O)COc2ccc(O)c3c2CCC(=O)N3)cc1` in this work. An EC50 of 1000 nM was found for `COc1ccc(CCNC[C@@H](O)COc2ccc(O)cc2)cc1` in this work. An EC50 of 2200 nM was found for `COc1ccc(CCNC[C@@H](O)COc2cccc3[nH]c(=O)[nH]c23)cc1` in this work. An EC50 of 290 nM was found for `CCCCCCP(=O)(O)COc1ccc(CCNC[C@H](O)COc2ccc(O)c3c2CCC(=O)N3)cc1` in this work. An EC50 of 120 nM was found for `C[C@H](Cc1ccc(OCP(=O)(O)c2ccccc2)cc1)NC[C@H](O)COc1ccc(O)c(NS(C)(=O)=O)c1` in this work. An EC50 of 1100 nM was found for `COc1ccc(CCNC[C@@H](O)COc2ccc(F)c(O)c2)cc1` in this work. An EC50 of 820 nM was found for `COc1ccc(CCNC[C@@H](O)COc2ccc(O)c(O)c2)cc1` in this work. An EC50 of 2000 nM was found for `CC(C)(C)NCC(O)COc1cccc2[nH]c(=O)[nH]c12` (stereo unspecified) [CGP-12177] in this work.

These compounds were tested against T1, Beta-3 adrenergic receptor (assay: Beta-3 agonist efficacy in an adenylate cyclase assay performed on chinese hamster ovary cells transfected with human Beta-3 adrenergic receptor; inactive).
Format: functional, cell-based
With `COc1ccc(CCNC[C@@H](O)COc2ccccc2O)cc1` the EC50 was “Not Active”. With `COc1ccc(CCNC[C@@H](O)COc2ccc(O)cc2CO)cc1` the EC50 was “Not Active”. For `COc1ccc(CCNC[C@@H](O)COc2cccc3nc(O)ccc23)cc1`, the EC50 was “Not Active”. For `COc1ccc(CCNC[C@@H](O)COc2ccc(F)c(CO)c2)cc1`, the EC50 was “Not Active”. In the case of `COc1ccc(CCNC[C@@H](O)COc2ccc3c(c2)NC(=O)CO3)cc1`, the EC50 is reported as “Not Active”. For `COc1ccc(CCNC[C@@H](O)COc2cccc3c2CCC(=O)N3)cc1`, the EC50 was “Not Active”. With `COc1ccc(CCNC[C@@H](O)COc2cc(O)cc(CO)c2)cc1` the EC50 was “Not Active”. In the case of `COc1ccc(CCNC[C@@H](O)COc2cccc3[nH]c(C(F)(F)F)nc23)cc1`, the EC50 is reported as “Not Active”.

What follows are compounds tested against T1, Beta-3 adrenergic receptor (assay: Beta-3 agonist efficacy in an adenylate cyclase assay performed on chinese hamster ovary cells transfected with human Beta-3 adrenergic receptor; Inactive).
Format: functional, cell-based
In the case of `COc1ccc(CCNC[C@H](O)COc2cccc(O)c2O)cc1`, the EC50 is reported as “Not Active”.
